The values below come from article PMC8746798, “Evaluation of 2-Thioxoimadazolidin-4-one Derivatives as Potent Anti-Cancer Agents through Apoptosis Induction and Antioxidant Activation: In Vitro and In Vivo Approaches” (Molecules, 2021).

“Also recorded” adds a separate entry of the source.

What is called IC50 is the concentration that inhibits the measured activity by half. A high value points to lower potency.

The test system of one series is HepG2 liver cancer cells. Description: MTT assay for cytotoxic screening, HepG2. The following applies: mean ± SE, n = 3. Type of series: cell-based, human. As for the experimental part: The in vitro anti-cancer activity was assessed using the MTT assay. […] Staurosporine and 5-FU were used as reference drugs. HepG2 cells (1 × 10^4 cells/well, 96-well plate) were maintained in DMEM media supplemented with 2mML-glutamine (Lonza, Verviers, Belgium) and 10% FBS (Sigma, St. Louis, MO, USA), 1% Penicillin/Streptomycin (Lonza, Verviers, Belgium) according to the routine culture work. Cultures were incubated for 48 h with serial dilutions (0.01, 0.1, 1, 10, 100 µM) of the tested compounds. Finally, cell viability was determined by measuring the absorbance λ570 nm according to the following formula: % of cell viability = (A sapmple/A control) ×100, then IC50 calculation was calculated using GraphPad Prism 7 software.
Background: Tetrazolium assays rely on reduction of a dye to a coloured formazan, in cell work by metabolically active cells.

In series [1] the test system is THLE-2 normal liver cells. Description: MTT assay, normal liver cells. Type of series: cell-based. The following applies: n = 3.
Series [2] has as its system Solid Ehrlich carcinoma (SEC). The experiment in a line: In vivo anti-tumor assay: tumor volume and tumor inhibition ratio. As to conditions: SEC-bearing mice, 6 mg/kg; SEC control 5802 mm^3. As for the experimental part:
We used adult Swiss albino female mice with average body weight 18–23 g obtained from Theodor Bilharzia Research Institute in Giza, Egypt. Mice were kept under constant conditions of a 12 h light–dark cycle at temperatures below controlled moisture conditions (22 ± 2 °C) with standard laboratory mouse nutrition and water entries. Approval for the experimental protocol was provided from the ethical committee of Suez Canal University for this experimental protocol (approval number REC-06-2020, Faculty of Science, Suez Canal University). Mice were adapted for approximately 10 days before use in the experiment.
Solid Ehrlich carcinoma (SEC) was obtained from the National Cancer Institute (University of Cairo, Egypt). The tumor cell line proliferated in mice after serial implantation of the peritoneal cavity (I.P.) in 0.2 mL of physiological saline containing 1 × 10^6 viable cells for 24 h. […]
We measured the length and width of the tumor using a digital Vernier clipper (Tricle Brand, Shanghai, China), then we calculate the tumor volume using the formula: V = (L × W × W)/2, where V is tumor volume, W is tumor width, and L is tumor length, and calculated the tumor inhibition ratio% using the formula: TIR %= (C − T)/C × 100, where T represents mean tumor volume of treated group and C represents mean tumor volume of the control group.

The nature of series [3]: Hematological parameters (CBC) in mice. Type of series: in vivo. As to conditions: SEC-bearing mice, 6 mg/Kg BW. Here is the method: (§1) We randomly divided 50 mice into groups 5 groups (10 mice in each group): normal control (I) (mice injected intraperitoneally with the same volume of solvent for 14 consecutive days); group II, a group of normal mice treated with compound 4 (mice injected intraperitoneally with newly produced compound 4 at a dose of 6 mg/kg per day for 14 days); group III, solid tumor group (mice were implanted with solid tumor); group IV, group were treated with 5-FU (after 10 days of tumor implantation, mice were treated with 6 mg/kg only once); and group V, solid tumor group were treated with compound 4 (after 10 days of tumor implantation, mice were treated with 6 mg/kg only once). after one day of the previous treatment, 10 mice from each group were sacrificed and tumor weight, tumor volume (length and width of solid femoral tumor), blood and liver samples were obtained from each group. A portion of each blood sample taken was used for complete blood count (CBC) and the rest was centrifuged to obtain the serum. Serum was used for biochemical parameter estimation. The livers were rapidly dissected, washed with isotonic saline, and dried. The experiment design is summarized in Supplementary Figure S3.
(§2) Complete blood counts (CBCs) were counted using an AbbottCELLDYN®1800 Automated Hematology Analyzer (Abbott Park, IL, USA) equipped with an off-the-shelf kit (Abbott Laboratories, Abbott Park, IL, USA). For microscopic histopathological examination, tumor and kidney slices were maintained in 10% formalin, dehydrated with graduated alcohol, embedded in paraffin sections, H&E stained, and hematoxylin stained.

A short description of series [4]: Serum biochemical parameters in mice. As to conditions: SEC-bearing mice, 6 mg/Kg BW. Type of series: in vivo. As for the experimental part: as §1
Evaluation of the activities of aspartate aminotransferase (AST) and alanine aminotransferase (ALT) using a commercial kit (ELITech Clinical Systems, France). The serum albumin level was measured using a kit obtained from STANBIO Company (USA). A commercial kit from the BioDiagnostic Company (Cairo, Egypt) was used to evaluate creatinine and urea levels.

Series [5] is described as follows: Histopathological examination of liver and kidney (H&E). Type of series: in vivo, mice. As to conditions: SEC-bearing mice treated. As for the experimental part: as §1, §2
Specimens from mice liver cells were fixed in 10% formalin saline. Then, the samples were dehydrated with ascending series of ethanol and embedded in paraffin. A […] thick section was stained with hematoxylin and eosin and examined under a light microscope.

[6] abbreviates: Homo sapiens, THLE-2, mean ± SE.

In the series with HepG2 liver cancer cells (Homo sapiens, HepG2, 48 h), `COc1ccc(/C=C2\C(=O)NC(=S)N2c2ccccc2)cc1` [Compound 1, (E)-5-(4-Methoxybenzylidene)-1-phenyl-2-thioxoimidazolidin-4-one] gave an IC50 of 27.8 ± 0.94 µM.

Regarding `O=C1NC(=S)N(c2ccccc2)/C1=C/c1cc2ccccc2[nH]1` [Compound 2, (E)-5-((1H-Indol-2-yl)methylene)-1-phenyl-2-thioxoimidazolidin-4-one], the IC50 in the series on HepG2 liver cancer cells (Homo sapiens, HepG2, 48 h) is 0.18 ± 0.03 µM; in series [1] (setting [6]) it was 16.9 ± 1.11 µM.

On to `CN1C(=S)NC(=O)/C1=C\c1ccc(N(C)C)cc1` [Compound 3, (E)-5-(4-(Dimethylamino)benzylidene)-1-methyl-2-thioxoimidazolidin-4-one], for which the IC50 in the series on HepG2 liver cancer cells (Homo sapiens, HepG2, 48 h) turned out to be 8.93 ± 0.75 µM.

As for `CN1C(=S)N(CCN2CCOCC2)C(=O)/C1=C\c1ccc2c(c1)OCO2` [Compound 5, (E)-5-(3,4-Methylenedioxybenzylidene)-3-[2-(4-morpholino)ethyl]-1-methyl-2-thioxo-imidazolidin-4-one], in the series on HepG2 liver cancer cells (Homo sapiens, HepG2, 48 h), the IC50 was found to be 1.94 ± 0.09 µM.

`O=c1[nH]cc(F)c(=O)[nH]1` [Compound 5-FU, reference compound] returned an IC50 with HepG2 liver cancer cells (48 h) of 5.18 ± 0.53 µM. The molecule further came in with an IC50 in series [1] (mean ± SE) of 43 ± 1.29 µM. In addition, the “tumor volume on the final day” value in series [2] is on record as 4177 mm^3. Further, the “RBC’s count” value in series [3] (SEC control 7.52 ± 0.5) was 7.5 ± 0.8 ×10^6/µL. Besides, the Hemoglobin in series [3] (SEC control 11.8 ± 0.8, mean ± SE n = 9) is 10.6 ± 1.1 g/dL. Further, the “WBC’s count” value in series [3] (SEC control 16.5 ± 3.4) is given as 13.1 ± 4.1 ×10^3/µL. The Creatinine in series [4] worked out at 0.8 ± 0.1 mg/dL. This molecule also returned an Albumin in series [4] (SEC control 4.01 ± 0.4) of 4.1 ± 0.3 g/dL. For the same molecule, the “Total Protein” value in series [4] (SEC control 6.6 ± 0.4) amounted to 7.2 ± 0.4 g/dL. The Urea in series [4] (SEC control 25.2 ± 2.3) came out at 26.1 ± 2.7 mg/dL. Moreover, the AST in series [4] (SEC control 48.9 ± 5.5) is recorded as 38 ± 4.6 U/L. In series [4] (SEC control 50 ± 2.7), this molecule registered an ALT of 39.1 ± 3.6 U/L. In series [5], the kidney histopathology result is given as “moderate improvement; also recorded: few tubules show evidence of renal acute tubular injury ATI”; the liver histopathology result is “Hydropic degeneration of hepatocytes, nuclear pyknosis, and karyolysis still occurred”.

On to `C=CCN1C(=O)/C(=C\c2ccc(C)cc2)NC1=S` [Compound 6, (E)-3-Allyl-5-(4-methylbenzylidene)-2-thioxoimidazolidin-4-one], for which the IC50 was 0.61 ± 0.08 µM in the series with HepG2 liver cancer cells (Homo sapiens, HepG2, 48 h) and 35.1 ± 1.33 µM in series [1] (setting [6]).

In the case of `O=C1/C(=C\c2cccs2)NC(=S)N1c1ccccc1` [Compound 7, (E)-3-Phenyl-5-(thiophen-2-ylmethylene)-2-thioxoimidazolidin-4-one], the IC50 in the series on HepG2 liver cancer cells (Homo sapiens, HepG2, 48 h) was 0.41 ± 0.009 µM; in series [1] (setting [6]) it was 15.4 ± 0.74 µM.

`CC(C)C1NC(=S)N(CN2CCOCC2)C1=O` (stereo not drawn) [Compound 10, 5-Isopropyl-3-(morpholinomethyl)-2-thioxoimidazolidin-4-one]: half-maximal inhibition in the series with HepG2 liver cancer cells (Homo sapiens, HepG2, 48 h) (IC50) was put at 64.8 ± 1.63 µM.

For the molecule `CC(C)C1(CN2CCCCC2)NC(=S)N(CN2CCCCC2)C1=O` (stereo not drawn) [Compound 11, 5-Isopropyl-3,5-bis(piperidin-1-ylmethyl)-2-thioxoimidazolidin-4-one], the IC50 in the series on HepG2 liver cancer cells (Homo sapiens, HepG2, 48 h) was 1.14 ± 0.05 µM.

In the series on HepG2 liver cancer cells (Homo sapiens, HepG2, 48 h), `CC(C)CC1(CN2CCOCC2)NC(=S)N(CN2CCOCC2)C1=O` (stereo not drawn) [Compound 12, 5-Isobutyl-3,5-bis(morpholinomethyl)-2-thioxoimidazolidin-4-one] came in with an IC50 of 1.13 ± 0.066 µM.

In turn, `CN[C@@H]1C[C@H]2O[C@@](C)([C@@H]1OC)n1c3ccccc3c3c4c(c5c6ccccc6n2c5c31)C(=O)NC4` [Staurosporine, reference compound] yielded an IC50 in the series with HepG2 liver cancer cells (Homo sapiens, HepG2, 48 h) of 5.07 ± 0.22 µM.
